For assay [1], the system named is E. coli strain 25922. As to the kind of experiment: MIC by broth microdilution, E. coli strain 25922. The assay is classed as cell-based. The method in brief: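 CLSI broth microdilution in cation-adjusted Mueller-Hinton broth, inoculum about 5×10^5 CFU/mL, 10% DMSO from the diluted series, 20 h at 35-37° C. MIC is the lowest concentration preventing visible growth, read by eye and at 600 nm.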
(In general: In broth dilution the organism is exposed to a series of concentrations in liquid medium.)

For assay [2], the system named is E. coli containing KPC-2. As to the kind of experiment: MIC by broth microdilution, E. coli containing KPC-2 (Ec KPC2 Iso). The conditions noted are these: Escherichia coli, read-out: Ec KPC2 Iso (MIC), E. coli containing KPC-2 (carbapenemase from Klebsiella pneumoniae). In kind it is cell-based. The method in brief:
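Host E. coli BW25113 pspB carrying multicopy pBAD18-kan plasmid with constitutive TEM-promoter KPC-2 expression (periplasmic signal sequence); broth microdilution per CLSI in cation-adjusted Mueller-Hinton broth, inoculum ~5×10^5 CFU/mL, compounds twofold serially diluted from DMSO masters (10% DMSO in dilution series added).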

Setting [3] is: Escherichia coli, 25922, E. coli strain 25922, read-out: Ec 25922 (MIC).

Values after ≈ are worked out from the molar mass of the structure shown. Where two headings read alike, the source gives them in different places.

By MIC is commonly meant the smallest concentration in the dilution series that meets the test's criterion for growth inhibition.

For `CN(Cc1ccccc1)Cc1cnn(C[C@@H]2[C@H](NC(=O)/C(=N\OC(C)(C)C(=O)O)c3csc(N)n3)C(=O)N2S(=O)(=O)O)n1` [Example 83, 2-(((Z)-(1-(2-aminothiazol-4-yl)-2-(((2R,3S)-2-((4-((benzyl(methyl)amino)methyl)-2H-1,2,3-triazol-2-yl)methyl)-4-oxo-1-sulfoazetidin-3-yl)amino)-2-oxoethylidene)amino)oxy)-2-methylpropanoic acid], the MIC in assay [1] (setting [3]) and in assay [2] was 32 µg/mL (≈ 50.3 µM) throughout.

For `N=C(NC1CCNCC1)c1ccc(OC[C@H](O/N=C(\C(=O)N[C@@H]2C(=O)N(S(=O)(=O)O)[C@@H]2Cn2ncc(CN)n2)c2csc(N)n2)C(=O)O)cc1` [Example 84, (S)-2-(((Z)-(2-(((2R,3S)-2-((4-(aminomethyl)-2H-1,2,3-triazol-2-yl)methyl)-4-oxo-1-sulfoazetidin-3-yl)amino)-1-(2-aminothiazol-4-yl)-2-oxoethylidene)amino)oxy)-3-(4-(N-(piperidin-4-yl)carbamimidoyl)phenoxy)propanoic acid], the MIC in assay [1] (setting [3]) and in assay [2] was 0.5 µg/mL (≈ 0.68 µM) throughout.

With `Nc1nc(/C(=N/OC2(C(=O)O)CC2)C(=O)N[C@@H]2C(=O)N(S(=O)(=O)O)[C@@H]2Cn2ncc(CNCC3CNC3)n2)cs1` [Example 85, 1-(((Z)-(1-(2-aminothiazol-4-yl)-2-(((2R,3S)-2-((4-(((azetidin-3-ylmethyl)amino)methyl)-2H-1,2,3-triazol-2-yl)methyl)-4-oxo-1-sulfoazetidin-3-yl)amino)-2-oxoethylidene)amino)oxy)cyclopropanecarboxylic acid], the MIC in assay [1] (setting [3]) and in assay [2] was 0.5 µg/mL (≈ 0.835 µM) in each case.

Turning to `CC(C)(O/N=C(\C(=O)N[C@@H]1C(=O)N(S(=O)(=O)O)[C@@H]1CN1CC[C@@H](N)C1=O)c1csc(N)n1)C(=O)O` [Example 86, 2-(((Z)-(2-(((2R,3S)-2-(((R)-3-amino-2-oxopyrrolidin-1-yl)methyl)-4-oxo-1-sulfoazetidin-3-yl)amino)-1-(2-aminothiazol-4-yl)-2-oxoethylidene)amino)oxy)-2-methylpropanoic acid], the MIC in assay [1] (setting [3]) and in assay [2] was 1 µg/mL (≈ 1.87 µM) throughout.

As to `CC(C)(O/N=C(\C(=O)N[C@@H]1C(=O)N(S(=O)(=O)O)[C@@H]1Cn1cc[nH]c1=O)c1csc(N)n1)C(=O)O` [Example 87, 2-(((Z)-(1-(2-aminothiazol-4-yl)-2-oxo-2-(((3S,4R)-2-oxo-4-((2-oxo-2,3-dihydro-1H-imidazol-1-yl)methyl)-1-sulfoazetidin-3-yl)amino)ethylidene)amino)oxy)-2-methylpropanoic acid], the figures for the MIC in assay [1] (setting [3]) and in assay [2] were 1 µg/mL (≈ 1.93 µM) and 0.5 µg/mL (≈ 0.966 µM), respectively.

As to `CC(C)(O/N=C(\C(=O)N[C@@H]1C(=O)N(S(=O)(=O)O)[C@@H]1CN1CC[C@@H](NC(=N)N)C1=O)c1csc(N)n1)C(=O)O` [Example 88, 2-(((Z)-(1-(2-aminothiazol-4-yl)-2-(((2R,3S)-2-(((R)-3-guanidino-2-oxopyrrolidin-1-yl)methyl)-4-oxo-1-sulfoazetidin-3-yl)amino)-2-oxoethylidene)amino)oxy)-2-methylpropanoic acid], the figures for the MIC in assay [1] (setting [3]) and in assay [2] were 2 µg/mL (≈ 3.47 µM) and 4 µg/mL (≈ 6.95 µM), respectively.

For the molecule `Nc1nc(/C(=N/OC2(C(=O)O)CC2)C(=O)N[C@@H]2C(=O)N(S(=O)(=O)O)[C@@H]2Cn2ncc(CN[C@@H]3CCNC3)n2)cs1` [Example 89, 1-(((Z)-(1-(2-aminothiazol-4-yl)-2-oxo-2-(((3S,4R)-2-oxo-4-((4-(((R)-pyrrolidin-3-ylamino)methyl)-2H-1,2,3-triazol-2-yl)methyl)-1-sulfoazetidin-3-yl)amino)ethylidene)amino)oxy)cyclopropanecarboxylic acid], the MIC in assay [1] (setting [3]) stood at 0.5 µg/mL (≈ 0.835 µM); in assay [2], 1 µg/mL (≈ 1.67 µM).

`NCCCNCc1cnn(C[C@@H]2[C@H](NC(=O)/C(=N\OC3(C(=O)O)CC3)c3csc(N)n3)C(=O)N2S(=O)(=O)O)n1` [Example 90, 1-(((Z)-(2-(((2R,3S)-2-((4-(((3-aminopropyl)amino)methyl)-2H-1,2,3-triazol-2-yl)methyl)-4-oxo-1-sulfoazetidin-3-yl)amino)-1-(2-aminothiazol-4-yl)-2-oxoethylidene)amino)oxy)cyclopropanecarboxylic acid]: the MIC in assay [1] (setting [3]) and in assay [2] was 0.25 µg/mL (≈ 0.426 µM) each time.

For `Nc1nc(/C(=N/OC2(C(=O)O)CC2)C(=O)N[C@@H]2C(=O)N(S(=O)(=O)O)[C@@H]2Cn2ncc(CN[C@H]3CCNC3)n2)cs1` [Example 91, 1-(((Z)-(1-(2-aminothiazol-4-yl)-2-oxo-2-(((3S,4R)-2-oxo-4-((4-(((S)-pyrrolidin-3-ylamino)methyl)-2H-1,2,3-triazol-2-yl)methyl)-1-sulfoazetidin-3-yl)amino)ethylidene)amino)oxy)cyclopropanecarboxylic acid], the MIC in assay [1] (setting [3]) came out at 0.125 µg/mL (≈ 0.209 µM); in assay [2], 0.25 µg/mL (≈ 0.418 µM).

`NCC1CN(Cc2cnn(C[C@@H]3[C@H](NC(=O)/C(=N\OC4(C(=O)O)CC4)c4csc(N)n4)C(=O)N3S(=O)(=O)O)n2)C1` [Example 92, 1-(((Z)-(2-(((2R,3S)-2-((4-((3-(aminomethyl)azetidin-1-yl)methyl)-2H-1,2,3-triazol-2-yl)methyl)-4-oxo-1-sulfoazetidin-3-yl)amino)-1-(2-aminothiazol-4-yl)-2-oxoethylidene)amino)oxy)cyclopropanecarboxylic acid]: the MIC in assay [1] (setting [3]) came out at 0.25 µg/mL (≈ 0.418 µM); in assay [2], 0.5 µg/mL (≈ 0.835 µM).

Turning to `Nc1nc(/C(=N/OC2(C(=O)O)CC2)C(=O)N[C@@H]2C(=O)N(S(=O)(=O)O)[C@@H]2Cn2ncc(CN[C@H]3C[C@H](N)C3)n2)cs1` [Example 93, 1-(((Z)-(2-(((2R,3S)-2-((4-((((1 r,3R)-3-aminocyclobutyl)amino)methyl)-2H-1,2,3-triazol-2-yl)methyl)-4-oxo-1-sulfoazetidin-3-yl)amino)-1-(2-aminothiazol-4-yl)-2-oxoethylidene)amino)oxy)cyclopropanecarboxylic acid], the MIC in assay [1] (setting [3]) is 0.25 µg/mL (≈ 0.418 µM); in assay [2] it was 0.5 µg/mL (≈ 0.835 µM).

Take `NCCCNCc1cnn(C[C@@H]2[C@H](NC(=O)/C(=N\OC3(C(=O)O)CC3)c3nsc(N)n3)C(=O)N2S(=O)(=O)O)n1` [Example 94, (((Z)-(1-(5-amino-1,2,4-thiadiazol-3-yl)-2-(((2R,3S)-2-((4-(((3-aminopropyl)amino)methyl)-2H-1,2,3-triazol-2-yl)methyl)-4-oxo-1-sulfoazetidin-3-yl)amino)-2-oxoethylidene)amino)oxy)cyclopropanecarboxylic acid]: the MIC in assay [1] (setting [3]) turned out to be 0.5 µg/mL (≈ 0.851 µM); in assay [2], 1 µg/mL (≈ 1.7 µM).

For `Nc1nc(/C(=N/OC2(C(=O)O)CC2)C(=O)N[C@@H]2C(=O)N(S(=O)(=O)O)[C@@H]2CN2C(=O)COC2=O)cs1` [Example 95, 1-(((Z)-(1-(2-aminothiazol-4-yl)-2-(((2R,3S)-2-((2,4-dioxooxazolidin-3-yl)methyl)-4-oxo-1-sulfoazetidin-3-yl)amino)-2-oxoethylidene)amino)oxy)cyclopropanecarboxylic acid], the values for the MIC in assay [1] (setting [3]) and in assay [2] were 0.25 µg/mL (≈ 0.47 µM) and 0.125 µg/mL (≈ 0.235 µM), respectively.

Turning to `NCCCNCc1nnn(C[C@@H]2[C@H](NC(=O)/C(=N\OC3(C(=O)O)CC3)c3csc(N)n3)C(=O)N2S(=O)(=O)O)n1` [Example 96, 1-(((Z)-(2-(((2R,3S)-2-((5-(((3-aminopropyl)amino)methyl)-2H-tetrazol-2-yl)methyl)-4-oxo-1-sulfoazetidin-3-yl)amino)-1-(2-aminothiazol-4-yl)-2-oxoethylidene)amino)oxy)cyclopropanecarboxylic acid], the MIC in assay [1] (setting [3]) came out at 0.25 µg/mL (≈ 0.425 µM); in assay [2] it was 1 µg/mL (≈ 1.7 µM).

For the molecule `NCCNC[C@@H]1CN(C[C@@H]2[C@H](NC(=O)/C(=N\OC3(C(=O)O)CC3)c3csc(N)n3)C(=O)N2S(=O)(=O)O)C(=O)O1` [Example 97, 1-(((Z)-(2-(((2R,3S)-2-(((R)-5-(((2-aminoethyl)amino)methyl)-2-oxooxazolidin-3-yl)methyl)-4-oxo-1-sulfoazetidin-3-yl)amino)-1-(2-aminothiazol-4-yl)-2-oxoethylidene)amino)oxy)cyclopropanecarboxylic acid], the MIC in assay [1] (Escherichia coli, 25922, read-out: Ec 25922 (MIC)) amounted to 0.125 µg/mL (≈ 0.212 µM); in assay [2], 0.125 µg/mL (≈ 0.212 µM).

For the molecule `Cn1cnn(C[C@@H]2[C@H](NC(=O)/C(=N\OC(C)(C)C(=O)O)c3csc(N)n3)C(=O)N2S(=O)(=O)O)c1=O` [Example 98, 2-(((Z)-(1-(2-aminothiazol-4-yl)-2-(((2R,3S)-2-((4-methyl-5-oxo-4,5-dihydro-1H-1,2,4-triazol-1-yl)methyl)-4-oxo-1-sulfoazetidin-3-yl)amino)-2-oxoethylidene)amino)oxy)-2-methylpropanoic acid], the results for the MIC in assay [1] (setting [3]) and in assay [2] were 2 µg/mL (≈ 3.76 µM) and 0.5 µg/mL (≈ 0.939 µM), respectively.

As to `CN(C)Cc1cnn(C[C@@H]2[C@H](NC(=O)/C(=N\OC(C)(C)C(=O)O)c3csc(N)n3)C(=O)N2S(=O)(=O)O)n1` [Example 99, 2-(((Z)-(1-(2-aminothiazol-4-yl)-2-(((2R,3S)-2-((4-((dimethylamino)methyl)-2H-1,2,3-triazol-2-yl)methyl)-4-oxo-1-sulfoazetidin-3-yl)amino)-2-oxoethylidene)amino)oxy)-2-methylpropanoic acid], the MIC in assay [1] (setting [3]) worked out at 2 µg/mL (≈ 3.57 µM); in assay [2] it was 4 µg/mL (≈ 7.15 µM).

`CNCc1cnn(C[C@@H]2[C@H](NC(=O)/C(=N\OC(C)(C)C(=O)O)c3csc(N)n3)C(=O)N2S(=O)(=O)O)n1` [Example 100, 2-(((Z)-(1-(2-aminothiazol-4-yl)-2-(((2R,3S)-2-((4-((methylamino)methyl)-2H-1,2,3-triazol-2-yl)methyl)-4-oxo-1-sulfoazetidin-3-yl)amino)-2-oxoethylidene)amino)oxy)-2-methylpropanoic acid]: the MIC turned out to be 1 µg/mL (≈ 1.83 µM) in assay [1] (setting [3]) and 4 µg/mL (≈ 7.33 µM) in assay [2].

For the origin of these results see US10369138B2, “Monobactam organic compounds for the treatment of bacterial infections” (Novartis AG, priority 2014, dated 2019).
